Literature values in patent publication US4332794A, “6"-Deoxydibekacin, 4",6"-dideoxydibekacin and 1-N-aminoacyl derivatives thereof, and the production of these new compounds” (Zaidan Hojin Biseibutsu Kagaku Kenkyu Kai, priority 1979, dated 1982).

What was measured:
[1] = tested on: dibekacin-resistant bacteria; details: prior art; cited from earlier work
[2] = Japanese patent application No. 54733/79; cited from earlier work
[3] = tested on: bacteria; details: Japanese patent application No. 54733/79; cited from earlier work

NCC[C@H](O)C(=O)N[C@@H]1C[C@H](N)[C@@H](O[C@H]2O[C@H](CN)CC[C@H]2N)[C@H](O)[C@H]1O[C@H]1O[C@H](CO)[C@@H](O)[C@H](N)[C@H]1O [1-N-(L-4-amino-2-hydroxybutyryl)-3',4'-dideoxykanamycin B]
antibacterial activity [1]: effective against dibekacin-resistant bacteria

C[C@@H]1C[C@H](N)[C@@H](O)[C@@H](O[C@@H]2[C@@H](O)[C@H](O[C@H]3O[C@H](CN)[C@@H](O)[C@H](O)[C@H]3O)[C@@H](N)C[C@H]2NC(=O)[C@@H](O)CCN)O1 [4",6"-dideoxyamikacin, 1-N-(L-4-amino-2-hydroxybutyryl)-4",6"-dideoxykanamycin A]
oto-toxicity [2]: low oto-toxicity
antibacterial activity compared to amikacin [3]: antibacterial activity as high as that of amikacin

C[C@H]1O[C@H](O[C@@H]2[C@@H](O)[C@H](O[C@H]3O[C@H](CN)[C@@H](O)[C@H](O)[C@H]3O)[C@@H](N)C[C@H]2NC(=O)[C@@H](O)CCN)[C@H](O)[C@@H](N)[C@@H]1O [6"-deoxyamikacin, 1-N-(L-4-amino-2-hydroxybutyryl)-6"-deoxykanamycin A]
oto-toxicity [2]: low oto-toxicity
antibacterial activity compared to amikacin [3]: antibacterial activity as high as that of amikacin
